Test [1] concerns the target T1, NLRP3 inflammasome (Homo sapiens, UniProt Q96P20).
T1 construct: IL-1beta HTRF
The test is described as follows: IL-1β TR-FRET assay (THP-1 cells differentiated to macrophages with IFN-γ, LPS primed, ATP activated; HTRF). Type of test: cell-based. The following applies: THP-1 macrophages, 50 ng/mL LPS priming, compound 30 min, 20 mM ATP 2 hours. How it is done: (§1) The biological activity of Compound (I) with respect to NLRP3 was determined using the following in vitro methods.
IL-1β TR-FRET Assay (Reported as IC50)
Monocytic THP-1 cells (ATCC: TIB-202) were maintained in accordance with the provider's instructions in RPMI media (Life Technologies, Cat #A10491-01); RPMI was supplemented with 10% heat inactivated fetal bovine serum (Corning, Cat #35-010-CV). The cells were differentiated into macrophages by the addition of 25 ng/mL IFN-γ (PeproTech, Cat #AF300-02-100UG) for 24 hours at 37 °C/5% CO2. Media was exchanged with fresh media with no FBS, and the cells were treated with 50 ng/mL LPS (priming step) (LPS-EK: Invivogen, Cat #tlrl-peklps). The cells were plated at 240,000 cells per well in 384-well flat-bottom cell culture plates (FALCON, Cat #353962) and were incubated for 24 hours at 37 °C/5% CO2. Compounds were serially diluted (half log dilutions) with DMSO and were finally diluted with Media with no FBS. The compounds were added to the cells in 384-well plates (added in 1:3) and then the plates were incubated for 30 minutes at 37 °C/5% CO2. The NLRP3 inflammasome was activated with the addition of 20 mM ATP (Sigma Cat #A3377-25G) and the cells were incubated for 2 hours at 37 °C/5% CO2. At the end of the incubation period, 30 μL supernatant was transferred to another 384-well plate and mixed on a plate shaker for 1 minutes. The supernatant was mixed with HTRF Antibody (Human IL1 beta kit, Cisbio, 62HIL1BPEH) in assay plates (Greiner Bio-One, Cat #784075) and the assay plates were incubated in shading box at room temperature for 16-24 hours. HTRF signal was measured by EnVision (Perkinelmer) in accordance with the manufacturer's instructions.
(§2) The IC50 values were calculated from a plot of percentage of inhibition versus the inhibitor concentration by a logistics curve fit according to: Y=[Bottom+(Top−Bottom)]/(1+10^[(Log IC50−X)·Hill Slope], where Y is the % inhibition at the inhibitor concentration, X, “Bottom” is the lowest inhibition value, i.e., 0%, “Top” is the maximum inhibition value, i.e., 100%, and the “Hill Slope” describes the slope of the sigmoidal curve between the “Bottom” and “Top” values. The curve fitting was conducted with XLfit (ver. 5.5.0.5, ID Business Solutions Limited) or internally developed software.
(§3) Table 2 lists in vitro biological assay data (IL-1β and TNF-α) for the compounds shown in the examples. These assays are described in the section entitled Biological Activity, above.

Test [2] relates to NF-κB pathway. The test can be described thus: TNF-α assay (THP-1 cells differentiated to macrophages with IFN-γ, NF-κB pathway activated with LPS; ELISA). The class given is cell-based, Human. The note with it: Homo sapiens, THP-1, THP-1 macrophages, compound 30 min, 50 ng/mL LPS 3 hours. How it is done: as §1
TNF-α Assay (Reported as IC50)
Monocytic THP-1 cells (ATCC: TIB-202) were maintained in accordance with the provider's instructions in RPMI media (Life Technologies, Cat #A10491-01); RPMI was supplemented with 10% heat inactivated fetal bovine serum (Hyclone Cat #SH30396.03). The cells were differentiated into macrophages by the addition of 25 ng/mL IFN-γ for 24 hours at 37 °C/5% CO2. Media was exchanged with fresh media with no FBS. The cells were plated at 40,000 cells per well in 384-well flat-bottom cell culture plates (Costar 3764) containing compounds (added in 1:1000) in a 1:3.16 serial dilution series in DMSO and were incubated for 30 minutes at 37 °C/5% CO2. The NF-κB pathway was activated with the addition of 50 ng/mL LPS and the cells were incubated for 3 hours at 37 °C/5% CO2. At the end of the incubation period, supernatant ([…]) was removed, and […] were monitored using an ELISA (Human TNF-α ELISA, R&D systems, Cat #DY210) according to the manufacturer's instructions.
as §2, §3
(In general: In an ELISA, binding on a coated surface is turned into a signal by an enzyme label.)

T1 sequence (Q96P20 whole entry): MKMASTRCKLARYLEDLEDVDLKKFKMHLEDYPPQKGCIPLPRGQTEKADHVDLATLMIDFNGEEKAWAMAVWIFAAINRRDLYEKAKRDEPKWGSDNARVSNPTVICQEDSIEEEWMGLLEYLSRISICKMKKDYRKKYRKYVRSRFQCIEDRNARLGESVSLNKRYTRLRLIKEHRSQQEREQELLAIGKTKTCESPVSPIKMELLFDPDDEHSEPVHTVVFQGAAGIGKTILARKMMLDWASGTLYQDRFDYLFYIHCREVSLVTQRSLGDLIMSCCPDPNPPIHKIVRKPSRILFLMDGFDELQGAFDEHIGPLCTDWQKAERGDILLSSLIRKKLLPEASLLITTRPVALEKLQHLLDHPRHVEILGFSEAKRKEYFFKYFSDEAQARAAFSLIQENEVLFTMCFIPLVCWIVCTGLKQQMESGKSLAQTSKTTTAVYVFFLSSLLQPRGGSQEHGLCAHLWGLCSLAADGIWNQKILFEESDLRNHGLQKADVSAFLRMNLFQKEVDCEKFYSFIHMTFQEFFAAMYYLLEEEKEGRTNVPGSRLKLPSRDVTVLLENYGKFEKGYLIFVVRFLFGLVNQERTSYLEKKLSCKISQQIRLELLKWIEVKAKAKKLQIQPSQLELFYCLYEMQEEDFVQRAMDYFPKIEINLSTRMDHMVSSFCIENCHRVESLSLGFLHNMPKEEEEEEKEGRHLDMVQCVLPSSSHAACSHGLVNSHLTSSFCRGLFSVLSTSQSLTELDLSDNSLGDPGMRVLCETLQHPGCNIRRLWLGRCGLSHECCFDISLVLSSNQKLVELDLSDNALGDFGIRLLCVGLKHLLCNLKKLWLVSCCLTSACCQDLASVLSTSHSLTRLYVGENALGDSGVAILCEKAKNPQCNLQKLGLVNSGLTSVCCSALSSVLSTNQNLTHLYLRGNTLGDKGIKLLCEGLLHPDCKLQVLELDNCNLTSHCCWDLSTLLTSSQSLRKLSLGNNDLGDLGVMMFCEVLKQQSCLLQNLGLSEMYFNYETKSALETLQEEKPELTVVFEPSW

By IC50 is commonly meant the concentration that inhibits the measured activity by half. Low readings indicate greater potency, high ones weaker potency. As to `CCN1C[C@H](Nc2nc3nn(-c4c(C)cc(C)cc4O)cc3s2)[C@@H](F)C1` (racemic) [Example 21, racemic mixture of 2-(5-{[(3R,4R)-1-ethyl-4-fluoropyrrolidin-3-yl]amino}-2H-pyrazolo[3,4-d][1,3]thiazol-2-yl)-3,5-dimethylphenol and 2-(5-{[(3S,4S)-1-ethyl-4-fluoropyrrolidin-3-yl]amino}-2H-pyrazolo[3,4-d][1,3]thiazol-2-yl)-3,5-dimethylphenol], the figures for the concentration for half-maximal inhibition (IC50) in test [1] and in test [2] were 160 nM and above 30000 nM, respectively.
For `Cc1cc(C)c(-n2cc3sc(N[C@H]4CN(C)C[C@H]4F)nc3n2)c(O)c1` (racemic) [Example 22, racemic mixture of 2-(5-{[(3R,4S)-4-fluoro-1-methylpyrrolidin-3-yl]amino}-2H-1-pyrazolo[3,4-d][1,3]thiazol-2-yl)-3,5-dimethyl-phenol and 2-(5-{[(3S,4R)-4-fluoro-methylpyrrolidin-3-yl]amino}-2H-pyrazolo[3,4-d][1,3]thiazol-2-yl)-3,5-dimethylphenol], in that order: 1100 nM and above 30000 nM.
Take `CCN1C[C@@H](F)[C@@H](Nc2nc3nn(-c4c(C)cc(C)cc4O)cc3s2)C1` (racemic) [Example 23, racemic mixture of 2-(5-{[(3R,4S)-1-ethyl-4-fluoropyrrolidin-3-yl]amino}-2H-pyrazolo[3,4-d][1,3]thiazol-2-yl)-3,5-dimethylphenol and 2-(5-{[(3S,4R)-1-ethyl-4-fluoropyrrolidin-3-yl]amino}-2H-pyrazolo[3,4-d][1,3]thiazol-2-yl)-3,5-dimethylphenol]: the IC50 was 210 nM in test [1] and above 30000 nM in test [2].
For `CC(=O)N1C[C@H](Nc2nc3nn(-c4c(C)cc(C)cc4O)cc3s2)[C@@H](F)C1` (racemic) [Example 104, racemic mixture of 1-[(3R,4R)-3-fluoro-4-{[2-(2-hydroxy-4,6-dimethylphenyl)-2H-pyrazolo[3,4-d][1,3]thiazol-5-yl]amino}pyrrolidin-1-yl]ethan-1-one and 1-[(3S,4S)-3-fluoro-4-{[2-(2-hydroxy-4,6-dimethylphenyl)-2H-pyrazolo[3,4-d][1,3]thiazol-5-yl]amino}pyrrolidin-1-yl] ethan-1-one], the values for the half-inhibitory concentration (IC50) in test [1] and in test [2] were 440 nM and above 30000 nM, respectively.
As for `CCC(=O)N1C[C@H](Nc2nc3nn(-c4c(C)cc(C)cc4O)cc3s2)[C@@H](F)C1` (racemic) [Example 105, racemic mixture of 1-[(3R,4R)-3-fluoro-4-{[2-(2-hydroxy-4,6-dimethylphenyl)-2H-pyrazolo[3,4-d][1,3]thiazol-5-yl]amino}pyrrolidin-1-yl]propan-1-one and 1-[(3S,4S)-3-fluoro-4-{[2-(2-hydroxy-4,6-dimethylphenyl)-2H-pyrazolo[3,4-d][1,3]thiazol-5-yl]amino}pyrrolidin-1-yl]propan-1-one], the IC50 is 310 nM in test [1] and above 30000 nM in test [2].
The corresponding values for `Cc1cc(C)c(-n2cc3sc(N[C@H]4CN(C(=O)CC5CC5)C[C@@H]4F)nc3n2)c(O)c1` (racemic) [Example 106, racemic mixture of 2-cyclopropyl-1-[(3R,4R)-3-fluoro-4-{[2-(2-hydroxy-4,6-dimethylphenyl)-2H-pyrazolo[3,4-d][1,3]thiazol-5-yl]amino}pyrrolidin-1-yl]ethan-1-one and 2-cyclopropyl-1-[(3S,4S)-3-fluoro-4-{[2-(2-hydroxy-4,6-dimethylphenyl)-2H-pyrazolo[3,4-d][1,3]thiazol-5-yl]amino}pyrrolidin-1-yl]ethan-1-one] are 310 nM and above 30000 nM.
With `CNC(=O)N1C[C@H](Nc2nc3nn(-c4c(C)cc(C)cc4O)cc3s2)[C@@H](F)C1` (racemic) [Example 119, racemic mixture of (3R,4R)-3-fluoro-4-{[2-(2-hydroxy-4,6-dimethylphenyl)-2H-pyrazolo[3,4-d][1,3]thiazol-5-yl]amino}-N-methylpyrrolidine-1-carboxamide and (3S,4S)-3-fluoro-4-{[2-(2-hydroxy-4,6-dimethylphenyl)-2H-pyrazolo[3,4-d][1,3]thiazol-5-yl]amino}-N-methylpyrrolidine-1-carboxamide], the IC50 is 370 nM in test [1] and above 30000 nM in test [2].
The corresponding values for `Cc1cc(C)c(-n2cc3sc(N[C@H]4COC[C@@H]4F)nc3n2)c(O)c1` (racemic) [Example 121, racemic mixture of 2-(5-{[(3R,4S)-4-fluorooxolan-3-yl]amino}-2H-pyrazolo[3,4-d][1,3]thiazol-2-yl)-3,5-dimethylphenol and 2-(5-{[(3S,4R)-4-fluorooxolan-3-yl]amino}-2H-pyrazolo[3,4-d][1,3]thiazol-2-yl)-3,5-dimethylphenol] are 590 nM and above 10000 nM.
For the compound `Cc1cc(C)c(-n2cc3sc(N[C@H]4COC[C@H]4F)nc3n2)c(O)c1` (racemic) [Example 122, racemic mixture of 2-(5-{[(3R,4R)-4-fluorooxolan-3-yl]amino}-2H-pyrazolo[3,4-d][1,3]thiazol-2-yl)-3,5-dimethylphenol and 2-(5-{[(3S,4S)-4-fluorooxolan-3-yl]amino}-2H-pyrazolo[3,4-d][1,3]thiazol-2-yl)-3,5-dimethylphenol], the concentration for half-maximal inhibition (IC50) in test [1] is 580 nM; in test [2] it was above 30000 nM.
For `Cc1cc(C)c(-n2cc3sc(N[C@H]4CN(C(=O)C(C)(C)O)C[C@@H]4F)nc3n2)c(O)c1` (racemic) [Example 123, racemic mixture of 1-[(3R,4R)-3-fluoro-4-{[2-(2-hydroxy-4,6-dimethylphenyl)-2H-pyrazolo[3,4-d][1,3]thiazol-5-yl]amino}pyrrolidin-1-yl]-2-hydroxy-2-methylpropan-1-one and 1-[(3S,4S)-3-fluoro-4-{[2-(2-hydroxy-4,6-dimethylphenyl)-2H-pyrazolo[3,4-d][1,3]thiazol-5-yl]amino}pyrrolidin-1-yl]-2-hydroxy-2-methylpropan-1-one], in that order: 390 nM and above 30000 nM.
The corresponding values for `Cc1cc(C)c(-n2cc3sc(N[C@H]4CN(C(=O)C5(O)CC5)C[C@@H]4F)nc3n2)c(O)c1` (racemic) [Example 124, racemic mixture of [(3R,4R)-3-fluoro-4-{[2-(2-hydroxy-4,6-dimethylphenyl)-2H-pyrazolo[3,4-d][1,3]thiazol-5-yl]amino}pyrrolidin-1-yl](1-hydroxycyclopropyl) methanone and [(3S,4S)-3-fluoro-4-{[2-(2-hydroxy-4,6-dimethylphenyl)-2H-pyrazolo[3,4-d][1,3]thiazol-5-yl]amino}pyrrolidin-1-yl](1-hydroxycyclopropyl)methanone] are 340 nM and above 30000 nM.
The corresponding values for `Cc1cc(C)c(-n2cc3sc(N[C@H]4CN(C(=O)C5(C#N)CC5)C[C@@H]4F)nc3n2)c(O)c1` (racemic) [Example 125, racemic mixture of 1-[(3R,4R)-3-fluoro-4-{[2-(2-hydroxy-4,6-dimethylphenyl)-2H-pyrazolo[3,4-d][1,3]thiazol-5-yl]amino}pyrrolidine-1-carbonyl]cyclopropane-1-carbonitrile and 1-[(3S,4S)-3-fluoro-4-{[2-(2-hydroxy-4,6-dimethylphenyl)-2H-pyrazolo[3,4-d][1,3]thiazol-5-yl]amino}pyrrolidine-1-carbonyl]cyclopropane-1-carbonitrile] are 460 nM and above 30000 nM.
